Experimental data taken from PMC7785372, “An UPLC-MS/MS Method for Determination of Osimertinib in Rat Plasma: Application to Investigating the Effect of Ginsenoside Rg3 on the Pharmacokinetics of Osimertinib” (International Journal of Analytical Chemistry, 2020).
Like-named read-outs stand apart in the source and are kept apart here. One block for each molecule: values may come before it.

Legend:
[1] = Pharmacokinetic study of osimertinib in rats after oral administration, with or without ginsenoside Rg3 pretreatment; assay type: in vivo, Male Sprague-Dawley rats
Procedure: The rats were randomly divided into two groups (six rats for each group). Osimertinib was dissolved and suspended by 1% carboxymethylcellulose sodium solution. The Rg3 powder in Shenyi capsule was dissolved in saline. In the first period, ginsenoside Rg3 (5 mg/kg) was orally administered to the rats in group I for seven days, and the rats in the other group were orally treated with normal saline for seven days. In the second period, the rats were fasted overnight with free access to water before the experiment. After overnight fasting, ginsenoside Rg3 (5 mg/kg) plus osimertinib (10 mg/kg) was orally administered to the rats in group I, and the rats received oral ginsenoside Rg3 30 min prior to osimertinib at the eighth day. Rats in group II were only orally treated with osimertinib (10 mg/kg) at the eighth day. Blood samples (each 100 μL) were collected via the oculi chorioideae vein at 0.5, 1, 2, 3, 4, 5, 6, 7, 8, 10, 12, 15, and 24 h after treatment in heparinized tubes. The blood samples were immediately centrifuged at 3000 rpm for 10 min. The plasma was separated from blood samples and transferred to clean tubes and immediately stored at −80°C until further analysis. The plasma concentrations of osimertinib were determined according to the aforementioned developed UPLC-MS/MS method.
The pharmacokinetic parameters, including the maximal plasma concentration (Cmax), area under the plasma concentration-time curve (AUC), time for the maximal plasma concentration (Tmax), and mean residence time (MRT), were calculated through noncompartmental analysis by Phoenix WinNonlin (Pharsight Inc., USA, version 1.1) software.

BCRP = system: BCRP; design: method as in PMID 31371986; conditions: in vitro; cited from earlier work
[2] = design: method as in PMID 31371986; conditions: rats; cited from earlier work
cytochrome P450 (CYP3A) = system: cytochrome P450 (CYP3A); design: method as in PMID 31371986; conditions: preclinical studies; cited from earlier work
P-gp = system: P-gp; design: method as in PMID 31371986; conditions: in vitro; cited from earlier work
[3] = Stability of osimertinib in rat plasma under various storage conditions (QC samples, UPLC-MS/MS); assay type: physicochemical; conditions: for Autosampler stability, RE / Autosampler stability, measured concentration Mean ± SD: processed rat plasma sample, 4°C for 24 h; for Autosampler stability, RE / Autosampler stability, measured concentration Mean ± SD / Short-term stability, RE / Short-term stability, measured concentration Mean ± SD / Freeze-thawing stability, RE / Freeze-thawing stability, measured concentration Mean ± SD / Long-term stability, RE / Long-term stability, measured concentration Mean ± SD: n = 6; for Short-term stability, RE / Short-term stability, measured concentration Mean ± SD: room temperature for 6 h; for Freeze-thawing stability, RE / Freeze-thawing stability, measured concentration Mean ± SD: −80°C for 3 cycles
Procedure: (1) Short-Term Stability. QC samples (low, medium, and high levels) were assessed by analyzing QC samples kept at room temperature for six hours.
(2) Autosampler Stability. QC samples (low, medium, and high levels) were evaluated after the processed QC samples were placed in an autosampler (4°C) for 24 hours.
(3) Freeze-Thaw Stability. QC samples (low, medium, and high levels) were investigated after storage at room temperature for 8 h, followed by three freeze-thaw cycles (thawing at room temperature during 2 h and freezing again at −80°C for at least 12 h).
(4) Long-Term Stability. QC samples (low, medium, and high levels) were determined by analyzing after storage at −80°C for 28 days.

[4] = design: method as in PMID 29381826; conditions: patients with advanced NSCLC, cited from earlier work
[5] = rat plasma, spiked 3 ng/mL, −80°C for 28 days
[6] = rat plasma, spiked 30 ng/mL, −80°C for 28 days
[7] = rat plasma, spiked 350 ng/mL, −80°C for 28 days
[8] = male, Sprague-Dawley, rat, in vivo, po, 10 mg/kg

Structure (SMILES): CC(C)=CCC[C@](C)(O)[C@H]1CC[C@]2(C)[C@@H]1[C@H](O)C[C@@H]1[C@@]3(C)CC[C@H](O[C@@H]4O[C@H](CO)[C@@H](O)[C@H](O)[C@H]4O[C@@H]4O[C@H](CO)[C@@H](O)[C@H](O)[C@H]4O)C(C)(C)[C@@H]3CC[C@]12C [Rg3, Ginsenoside Rg3]
Effect on the main pharmacokinetic parameters of osimertinib ([1]; Rg3 5 mg/kg oral for seven days, coadministered with osimertinib 10 mg/kg oral, rats): no significant effect

Autosampler stability, RE ([3]; spiked 3 ng/mL): 0.6%
Autosampler stability, measured concentration Mean ± SD ([3]; spiked 3 ng/mL): 3.02 ± 0.01 ng/mL
Autosampler stability, RE ([3]; spiked 30 ng/mL): −4.2%
Autosampler stability, measured concentration Mean ± SD ([3]; spiked 30 ng/mL): 28.7 ± 0.8 ng/mL
Autosampler stability, RE ([3]; spiked 350 ng/mL): 2.5%
Autosampler stability, measured concentration Mean ± SD ([3]; spiked 350 ng/mL): 359 ± 26 ng/mL
Short-term stability, RE ([3]; rat plasma, spiked 3 ng/mL): 6.8%
Short-term stability, measured concentration Mean ± SD ([3]; rat plasma, spiked 3 ng/mL): 3.20 ± 0.14 ng/mL
Freeze-thawing stability, RE ([3]; rat plasma, spiked 3 ng/mL): 1.0%
Freeze-thawing stability, measured concentration Mean ± SD ([3]; rat plasma, spiked 3 ng/mL): 3.03 ± 0.02 ng/mL
Long-term stability, RE [3, 5]: −1.5%
Long-term stability, measured concentration Mean ± SD [3, 5]: 2.96 ± 0.24 ng/mL
Short-term stability, RE ([3]; rat plasma, spiked 30 ng/mL): 0.4%
Short-term stability, measured concentration Mean ± SD ([3]; rat plasma, spiked 30 ng/mL): 30.1 ± 1.0 ng/mL
Freeze-thawing stability, RE ([3]; rat plasma, spiked 30 ng/mL): 0.4%
Freeze-thawing stability, measured concentration Mean ± SD ([3]; rat plasma, spiked 30 ng/mL): 30.1 ± 1.0 ng/mL
Long-term stability, RE [3, 6]: 9.1%
Long-term stability, measured concentration Mean ± SD [3, 6]: 32.7 ± 0.8 ng/mL
Short-term stability, RE ([3]; rat plasma, spiked 350 ng/mL): −2.7%
Short-term stability, measured concentration Mean ± SD ([3]; rat plasma, spiked 350 ng/mL): 341 ± 3 ng/mL
Freeze-thawing stability, RE ([3]; rat plasma, spiked 350 ng/mL): −0.3%
Freeze-thawing stability, measured concentration Mean ± SD ([3]; rat plasma, spiked 350 ng/mL): 349 ± 6 ng/mL
Long-term stability, RE [3, 7]: 2.4%
Long-term stability, measured concentration Mean ± SD [3, 7]: 359 ± 7 ng/mL
Stability under the conditions investigated ([3]; rat plasma, three QC concentrations, room temperature 6 h, autosampler 24 h, three freeze-thaw cycles (−80°C), −80°C for 28 days, all within ±15% of nominal): stable
AUC0-t [1, 8]: 2.82 ± 1.20 µg·h/mL
CL/F [1, 8]: 19.8 ± 8.1 L/h/kg
Vz/F [1, 8]: 130 ± 58 L/kg
half-life [1, 8]: 268 ± 56.4 min
AUC0-t ([1]; male, Sprague-Dawley, rat, in vivo, po, 10 mg/kg, AUC0-t): 2.82 ± 1.21 µg·h/mL
AUC(0-inf) ([1]; male, Sprague-Dawley, rat, in vivo, po, 10 mg/kg, AUC0-∞): 2900 ± 1210 ng·h/mL
Cmax ([1]; male, Sprague-Dawley, rat, in vivo, po, 10 mg/kg, C max): 317 ± 138 ng/mL
CL/F ([1]; male, Sprague-Dawley, rat, in vivo, po, 10 mg/kg, CL/F): 19.8 L/h/kg
MRT last ([1]; male, Sprague-Dawley, rat, in vivo, po, 10 mg/kg, MRT0-t): 6.88 ± 0.62 h
Tmax ([1]; male, Sprague-Dawley, rat, in vivo, po, 10 mg/kg, T max): 3.33 ± 0.82 h
Vd/F ([1]; male, Sprague-Dawley, rat, in vivo, po, 10 mg/kg, Vz/F): 130 ± 58.1 L/kg
Structure (SMILES): C=CC(=O)Nc1cc(Nc2nccc(-c3cn(C)c4ccccc34)n2)c(OC)cc1N(C)CCN(C)C [Osimertinib]
Substrate of BCRP (BCRP): substrate
MRT [2]: 14.51 h
Tmax [2]: about 4.48 h
t1/2 [2]: 14.96 h
Metabolizing enzyme (cytochrome P450 (CYP3A)): principally metabolized by cytochrome P450 (CYP3A)
Substrate of P-gp (P-gp): substrate
Increase of exposure (AUC) ([4]; coadministered with itraconazole (strong CYP3A4 inhibitor)): 24%
Decrease of exposure (AUC) ([4]; coadministered with rifampicin (CYP3A4 inducer)): 78%
